“Also recorded” adds a separate entry of the source.
Tested on: Male Wistar rats
Experiment: Excretion of radiolabeled triolein and tripalmitin in rats fed test diets
Assay type: in vivo, rat
Method: As noted above, saturated fat is deemed to be complexed if at least about 5% of the available saturated fat is complexed. The amount of fat that is complexed is determined by conducting excretion studies as detailed below, and determining the amount of fat that is excreted as compared to a control sample not containing complexed fat. While some of the complexed fat may dissociate in the body, the excretion study will identify the minimum percentage of fat that is complexed.
• 13. Centrifuge the isolated aqueous layer from 11 above at 5000×g for 10 min. • 14. Filter 1 ml of the centrifuged sample supernatant with 0.45 micrometer nylon filter. Inject on to HPLC molecular sizing column. Quantify total cyclodextrin relative to a response factor developed from a standard curve of pure cyclodextrin. • 15. For Pure Fat Samples Only: Weigh remainder of supernatant sample into tared flask. Evaporate moisture to dryness. Record weight of solids. (note: net weight for non-salt containing fat samples will represent free alpha-cyclodextrin) • 16. Subtract free alpha-cyclodextrin amounts determined in 8 above from values determined in steps 15 and 16. Value equals total bound alpha-cyclodextrin. Experimental Design Male Wistar rats, 125-150 g in initial weight, 10 per group, were fed one of four diets. The diets were modifications of the AIN-93G diet [Reeves, PG (1997) Components of the AIN-93 Diets as Improvements in the AIN-76A Diet, J. Nutr. 127:838 S-841S], and thus was a purified diet. All diets were modified to contain 15% fat by weight, wherein the fat comprised 50% ^14C-triolein, an unsaturated fat that is a triglyceride of oleic acid, and 50% ^3H-tripalmitin, a saturated fat that is a triglyceride of palmitic acid. The diets were as follows:
Note that Diet 3 comprised the AIN-93G diet containing 5% α-cyclodextrin (replacing cellulose), which was added in the free unhydrated form as provided by the manufacturer (unhydrated ACD contains approximately 10% w/w moisture). Diet 4 comprised the AIN-93G diet containing 5% hydrated α-cyclodextrin (replacing cellulose), mixed with the radiolabeled fat prior to incorporation into the diet.
The animals were fed their respective diets for 7 days. A two day fecal fat collection was made during days 6 and 7 to allow for a conventional fecal fat determination (i.e. fat extraction with acidified chloroform:methanol). The animals were then fasted overnight, and presented with a 4 g meal of their respective diets containing ^14C-triolein and ^3H-tripalmitin incorporated into the diet. A fecal collection was begun four hours later, and continued until the animals were taken. Twelve hours later, the rats were killed and the small and large intestinal tracts removed. Contents of the stomach, small intestine, cecum, and colon as well as the small intestinal mucosa were collected and freeze-dried. […] After solubilization, the solution was neutralized with glacial acetic acid (to eliminate chemiluminescence), scintillation cocktail added, and the vials counted in a liquid scintillation counter using a dual label counting algorithm.
In this study, excretion is defined as all radiolabel present in the cecal contents, colon contents, and feces. Excretion is calculated in this manner as there is no absorption of triacylglycerols in the large intestine; thus, any radiolabel present in the cecal or colon contents cannot be absorbed and is thus destined to be excreted. […]

[1] = 5% in AIN-93G diet with 15% fat, fed 7 days, then 4 g radiolabeled meal, FIG. 1

OC[C@H]1O[C@@H]2O[C@H]3[C@H](O)[C@@H](O)[C@@H](O[C@H]4[C@H](O)[C@@H](O)[C@@H](O[C@H]5[C@H](O)[C@@H](O)[C@@H](O[C@H]6[C@H](O)[C@@H](O)[C@@H](O[C@H]7[C@H](O)[C@@H](O)[C@@H](O[C@H]1[C@H](O)[C@H]2O)O[C@@H]7CO)O[C@@H]6CO)O[C@@H]5CO)O[C@@H]4CO)O[C@@H]3CO [α-cyclodextrin, alpha-cyclodextrin]
triolein excretion (radiolabel in cecal contents, colon contents and feces) [1]: no or only a modest effect
tripalmitin excretion (radiolabel in cecal contents, colon contents and feces) [1]: dramatically increased; also recorded: dramatic effect
triolein excretion (radiolabel in cecal contents, colon contents and feces) (5% in AIN-93G diet with 15% fat, fed 7 days, then 4 g radiolabeled meal, FIG. 1, listed as α-Cyclodextrin): no affect
ratio of excretion of tripalmitin to triolein (calculated from FIG. 1 values (radiolabel excreted as proportion of radiolabel consumed), FIG. 2): favored tripalmitin excretion
fat excretion (dietary, 5% in diet, rats): does indeed increase fat excretion
